# Test results reported in PubChem BioAssay (NCI).
#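 Five compound concentrations were applied to cells in 96-well plates for 48 hours; endpoints were derived by simple linear interpolation of the resulting dose-response curve. GI50: concentration for 50% inhibition of growth. The concentration for full growth arrest is given as TGI.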
# Experiments:
# Experiment in all cases: DTP human tumour cell line panel, 48 h
# NCI-H522 lung = system: NCI-H522 lung
# MDA-MB-435 = system: MDA-MB-435
# RXF 393 renal = system: RXF 393 renal
# PC-3 prostate = system: PC-3 prostate
# HCT-116 colon = system: HCT-116 colon
# TK-10 renal = system: TK-10 renal
# HCT-15 colon = system: HCT-15 colon
# HCC-2998 colon = system: HCC-2998 colon
# M14 melanoma = system: M14 melanoma
# CCRF-CEM leukemia = system: CCRF-CEM leukemia
# SK-OV-3 ovarian = system: SK-OV-3 ovarian
# RPMI-8226 leukemia = system: RPMI-8226 leukemia
# SK-MEL-2 melanoma = system: SK-MEL-2 melanoma
# HOP-62 NSCLC = system: HOP-62 NSCLC
# SW-620 colon = system: SW-620 colon
# HOP-92 NSCLC = system: HOP-92 NSCLC
# BT-549 breast = system: BT-549 breast
# IGROV1 ovarian = system: IGROV1 ovarian
# MCF7 breast = system: MCF7 breast
# OVCAR-3 ovarian = system: OVCAR-3 ovarian
# 786-0 renal = system: 786-0 renal
# SNB-19 CNS = system: SNB-19 CNS
# UACC-257 melanoma = system: UACC-257 melanoma
# SK-MEL-28 melanoma = system: SK-MEL-28 melanoma
# SF-268 CNS = system: SF-268 CNS
# MDA-MB-231 breast = system: MDA-MB-231 breast
# CAKI-1 renal = system: CAKI-1 renal
# KM12 colon = system: KM12 colon
# SF-295 CNS = system: SF-295 CNS
# NCI-H460 lung = system: NCI-H460 lung
# HT29 colon = system: HT29 colon
# HS 578T breast = system: HS 578T breast
# OVCAR-4 ovarian = system: OVCAR-4 ovarian
# SNB-75 CNS = system: SNB-75 CNS
# A498 renal = system: A498 renal
# DU-145 prostate = system: DU-145 prostate
# U251 CNS = system: U251 CNS
# SN12C renal = system: SN12C renal
# T-47D breast = system: T-47D breast
# UO-31 renal = system: UO-31 renal
# SF-539 CNS = system: SF-539 CNS
# MALME-3M melanoma = system: MALME-3M melanoma
# LOX IMVI melanoma = system: LOX IMVI melanoma
# A549 NSCLC = system: A549 NSCLC
# ACHN renal = system: ACHN renal
# OVCAR-5 ovarian = system: OVCAR-5 ovarian
# UACC-62 melanoma = system: UACC-62 melanoma
# MOLT-4 leukemia = system: MOLT-4 leukemia
# EKVX NSCLC = system: EKVX NSCLC
# NCI-H226 lung = system: NCI-H226 lung
# COLO 205 colon = system: COLO 205 colon
# OVCAR-8 ovarian = system: OVCAR-8 ovarian
# NCI-H23 lung = system: NCI-H23 lung
# SK-MEL-5 melanoma = system: SK-MEL-5 melanoma
# NCI/ADR-RES ovarian = system: NCI/ADR-RES ovarian
smiles,measurement,setting,value
COC(=O)[C@@]1(C)CCC[C@]2(C)[C@H]3Cc4occc4[C@H](C)[C@@H]3CC[C@@]12O,GI50,NCI-H522 lung,31.4 µM
same,TGI,NCI-H522 lung,98.5 µM
same,GI50,MDA-MB-435,16.7 µM
same,TGI,MDA-MB-435,38.7 µM
same,GI50,RXF 393 renal,25 µM
same,TGI,RXF 393 renal,93.1 µM
same,GI50,PC-3 prostate,26.1 µM
same,TGI,PC-3 prostate,> 100 µM
same,GI50,HCT-116 colon,17.6 µM
same,TGI,HCT-116 colon,42.5 µM
same,GI50,TK-10 renal,24.5 µM
same,TGI,TK-10 renal,> 100 µM
same,GI50,HCT-15 colon,73.5 µM
same,TGI,HCT-15 colon,> 100 µM
same,GI50,HCC-2998 colon,34.3 µM
same,TGI,HCC-2998 colon,89.7 µM
same,GI50,M14 melanoma,28.6 µM
same,TGI,M14 melanoma,> 100 µM
same,GI50,CCRF-CEM leukemia,37.2 µM
same,TGI,CCRF-CEM leukemia,> 100 µM
same,GI50,SK-OV-3 ovarian,> 100 µM
same,TGI,SK-OV-3 ovarian,> 100 µM
same,GI50,RPMI-8226 leukemia,17.9 µM
same,TGI,RPMI-8226 leukemia,> 100 µM
same,GI50,SK-MEL-2 melanoma,26.8 µM
same,TGI,SK-MEL-2 melanoma,72.4 µM
same,GI50,HOP-62 NSCLC,33.7 µM
same,TGI,HOP-62 NSCLC,> 100 µM
same,GI50,SW-620 colon,44.1 µM
same,TGI,SW-620 colon,> 100 µM
same,GI50,HOP-92 NSCLC,13.4 µM
same,TGI,HOP-92 NSCLC,57.9 µM
same,GI50,BT-549 breast,26.9 µM
same,TGI,BT-549 breast,70.5 µM
same,GI50,IGROV1 ovarian,30 µM
same,TGI,IGROV1 ovarian,> 100 µM
same,GI50,MCF7 breast,18.2 µM
same,TGI,MCF7 breast,> 100 µM
same,GI50,OVCAR-3 ovarian,17.3 µM
same,TGI,OVCAR-3 ovarian,59 µM
same,GI50,786-0 renal,45.8 µM
same,TGI,786-0 renal,> 100 µM
same,GI50,SNB-19 CNS,95.5 µM
same,TGI,SNB-19 CNS,> 100 µM
same,GI50,UACC-257 melanoma,35.6 µM
same,TGI,UACC-257 melanoma,> 100 µM
same,GI50,SK-MEL-28 melanoma,> 100 µM
same,TGI,SK-MEL-28 melanoma,> 100 µM
same,GI50,SF-268 CNS,34 µM
same,TGI,SF-268 CNS,> 100 µM
same,GI50,MDA-MB-231 breast,32.4 µM
same,TGI,MDA-MB-231 breast,> 100 µM
same,GI50,CAKI-1 renal,41.8 µM
same,TGI,CAKI-1 renal,> 100 µM
same,GI50,KM12 colon,16 µM
same,TGI,KM12 colon,32.8 µM
same,GI50,SF-295 CNS,21.1 µM
same,TGI,SF-295 CNS,66.8 µM
same,GI50,NCI-H460 lung,16.3 µM
same,TGI,NCI-H460 lung,49.2 µM
same,GI50,HT29 colon,20.9 µM
same,TGI,HT29 colon,> 100 µM
same,GI50,HS 578T breast,20.1 µM
same,TGI,HS 578T breast,41.4 µM
same,GI50,OVCAR-4 ovarian,92.3 µM
same,TGI,OVCAR-4 ovarian,> 100 µM
same,GI50,SNB-75 CNS,55.6 µM
same,TGI,SNB-75 CNS,> 100 µM
same,GI50,A498 renal,17.9 µM
same,TGI,A498 renal,46.6 µM
same,GI50,DU-145 prostate,58.7 µM
same,TGI,DU-145 prostate,> 100 µM
same,GI50,U251 CNS,18.1 µM
same,TGI,U251 CNS,44 µM
same,GI50,SN12C renal,21.1 µM
same,TGI,SN12C renal,48 µM
same,GI50,T-47D breast,26.4 µM
same,TGI,T-47D breast,> 100 µM
same,GI50,UO-31 renal,37.5 µM
same,TGI,UO-31 renal,> 100 µM
same,GI50,SF-539 CNS,19.9 µM
same,TGI,SF-539 CNS,40.2 µM
same,GI50,MALME-3M melanoma,21.3 µM
same,TGI,MALME-3M melanoma,52.4 µM
same,GI50,LOX IMVI melanoma,18.4 µM
same,TGI,LOX IMVI melanoma,42.6 µM
same,GI50,A549 NSCLC,34.4 µM
same,TGI,A549 NSCLC,> 100 µM
same,GI50,ACHN renal,17.8 µM
same,TGI,ACHN renal,50.2 µM
same,GI50,OVCAR-5 ovarian,73.7 µM
same,TGI,OVCAR-5 ovarian,> 100 µM
same,GI50,UACC-62 melanoma,17.5 µM
same,TGI,UACC-62 melanoma,> 100 µM
same,GI50,MOLT-4 leukemia,17.3 µM
same,TGI,MOLT-4 leukemia,80.3 µM
same,GI50,EKVX NSCLC,27.7 µM
same,TGI,EKVX NSCLC,71.3 µM
same,GI50,NCI-H226 lung,20.9 µM
same,TGI,NCI-H226 lung,64.7 µM
same,GI50,COLO 205 colon,33.1 µM
same,TGI,COLO 205 colon,> 100 µM
same,GI50,OVCAR-8 ovarian,35 µM
same,TGI,OVCAR-8 ovarian,> 100 µM
same,GI50,NCI-H23 lung,45.3 µM
same,TGI,NCI-H23 lung,> 100 µM
same,GI50,SK-MEL-5 melanoma,21.1 µM
same,TGI,SK-MEL-5 melanoma,37.4 µM
same,GI50,NCI/ADR-RES ovarian,68.4 µM
same,TGI,NCI/ADR-RES ovarian,> 100 µM
